From PubChem BioAssay (NCI)
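Each compound was tested at five concentrations against cells in 96-well plates for 48 hours. TGI is the concentration that stops growth completely.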

Key:
Experiment in all cases: growth of human tumour cells (NCI), 48 h
ACHN renal = test system: ACHN renal
EKVX NSCLC = test system: EKVX NSCLC
HL-60(TB) leukemia = test system: HL-60(TB) leukemia
NCI-H23 lung = test system: NCI-H23 lung
SW-620 colon = test system: SW-620 colon
OVCAR-8 ovarian = test system: OVCAR-8 ovarian
U251 CNS = test system: U251 CNS
DMS 273 small cell lung = test system: DMS 273 small cell lung
LOX IMVI melanoma = test system: LOX IMVI melanoma
OVCAR-4 ovarian = test system: OVCAR-4 ovarian
NCI-H522 lung = test system: NCI-H522 lung
M19-MEL melanoma = test system: M19-MEL melanoma
SK-MEL-2 melanoma = test system: SK-MEL-2 melanoma
SNB-78 CNS = test system: SNB-78 CNS
UO-31 renal = test system: UO-31 renal
SK-MEL-5 melanoma = test system: SK-MEL-5 melanoma
K-562 leukemia = test system: K-562 leukemia
A498 renal = test system: A498 renal
IGROV1 ovarian = test system: IGROV1 ovarian
TK-10 renal = test system: TK-10 renal
DLD-1 colon = test system: DLD-1 colon
SNB-19 CNS = test system: SNB-19 CNS
DMS 114 small cell lung = test system: DMS 114 small cell lung
M14 melanoma = test system: M14 melanoma
NCI-H226 lung = test system: NCI-H226 lung
XF 498 CNS = test system: XF 498 CNS
COLO 205 colon = test system: COLO 205 colon
CAKI-1 renal = test system: CAKI-1 renal
UACC-62 melanoma = test system: UACC-62 melanoma
HCT-116 colon = test system: HCT-116 colon
HOP-92 NSCLC = test system: HOP-92 NSCLC
SF-295 CNS = test system: SF-295 CNS
SN12C renal = test system: SN12C renal
SF-539 CNS = test system: SF-539 CNS
786-0 renal = test system: 786-0 renal
MOLT-4 leukemia = test system: MOLT-4 leukemia
OVCAR-5 ovarian = test system: OVCAR-5 ovarian
RPMI-8226 leukemia = test system: RPMI-8226 leukemia
A549 NSCLC = test system: A549 NSCLC
LXFL 529 NSCLC = test system: LXFL 529 NSCLC
HOP-62 NSCLC = test system: HOP-62 NSCLC
SF-268 CNS = test system: SF-268 CNS
KM12 colon = test system: KM12 colon
CCRF-CEM leukemia = test system: CCRF-CEM leukemia
UACC-257 melanoma = test system: UACC-257 melanoma
MALME-3M melanoma = test system: MALME-3M melanoma
NCI-H460 lung = test system: NCI-H460 lung
SK-OV-3 ovarian = test system: SK-OV-3 ovarian
RXF-631 renal = test system: RXF-631 renal
HT29 colon = test system: HT29 colon
HCC-2998 colon = test system: HCC-2998 colon
KM20L2 colon = test system: KM20L2 colon
HOP-18 NSCLC = test system: HOP-18 NSCLC
OVCAR-3 ovarian = test system: OVCAR-3 ovarian
HCT-15 colon = test system: HCT-15 colon

Measured: TGI

N#CC(C(=O)CCC(=O)Nc1ccc(Cl)cc1)c1ccc(Cl)cc1 (stereo not given)
> 100 µM: all assays above
